Test results taken from the supplement of paper PMC10307832.

How the values were obtained:
Assay in all cases: relative viability (nuclei count vs DMSO), 5 days (fraction); higher = more cells survive
[1] = compound: CN(C)CC1=CC(=CC=C1)N=C(C2=CC=CC=C2)C3=C(NC4=C3C=CC(=C4)C(=O)N(C)C)O + CS(=O)(=O)N1CCN(Cc2cc3nc(-c4cccc5[nH]ncc45)nc(N4CCOCC4)c3s2)CC1 [Pictilisib] (partner 1 µM)
How it was run: (§1)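 For relative viability, nuclei counts in treated wells were divided by those in vehicle wells. Lung cancer cell lines had been pin-tool dosed in 1536-well plates the day after seeding and cultured for 5 days, then fixed and stained in one step (final 0.05% Triton X-100, 1% formaldehyde, 1 ug/ml Hoechst) and imaged at 4×. Doses were one drug alone or a fixed anchor-drug dose plus five library-drug doses (not always all listed) in √10 steps, and values are duplicate-plate medians.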

[2] = compound: CN(C)CC1=CC(=CC=C1)N=C(C2=CC=CC=C2)C3=C(NC4=C3C=CC(=C4)C(=O)N(C)C)O + CC(C)C[C@H](NC(=O)[C@H](Cc1ccccc1)NC(=O)c1cnccn1)B(O)O [Bortezomib] (partner 0.002 µM)
How it was run: as §1

[3] = compound: CN(C)CC1=CC(=CC=C1)N=C(C2=CC=CC=C2)C3=C(NC4=C3C=CC(=C4)C(=O)N(C)C)O + O=C(c1cc(Cc2n[nH]c(=O)c3ccccc23)ccc1F)N1CCN(C(=O)C2CC2)CC1 [Olaparib] (partner 8 µM)
How it was run: as §1

[4] = compound: CN(C)CC1=CC(=CC=C1)N=C(C2=CC=CC=C2)C3=C(NC4=C3C=CC(=C4)C(=O)N(C)C)O + CC(=O)Nc1cccc(-n2c(=O)n(C3CC3)c(=O)c3c(Nc4ccc(I)cc4F)n(C)c(=O)c(C)c32)c1 [Trametinib] (partner 0.02 µM)
How it was run: as §1

Cell Line | relative viability ([1]; first compound 0.08 µM) | relative viability ([1]; first compound 0.253 µM) | relative viability ([1]; first compound 0.8 µM) | relative viability ([1]; first compound 2.53 µM) | relative viability ([1]; first compound 8 µM) | relative viability ([2]; first compound 0.08 µM) | relative viability ([2]; first compound 0.253 µM) | relative viability ([2]; first compound 0.8 µM) | relative viability ([2]; first compound 2.53 µM) | relative viability ([2]; first compound 8 µM) | relative viability ([3]; first compound 0.08 µM) | relative viability ([3]; first compound 0.253 µM) | relative viability ([3]; first compound 0.8 µM) | relative viability ([3]; first compound 2.53 µM) | relative viability ([3]; first compound 8 µM) | relative viability ([4]; first compound 0.08 µM) | relative viability ([4]; first compound 0.253 µM) | relative viability ([4]; first compound 0.8 µM) | relative viability ([4]; first compound 2.53 µM) | relative viability ([4]; first compound 8 µM)
LC-2-ad | 0.453 | 0.383 | 0.442 | 0.521 | 0.231 | 1.08 | 1.1 | 1.03 | 0.979 | 0.995 | 0.663 | 0.771 | 0.729 | 0.723 | 0.827 | 0.86 | 0.885 | 0.893 | 0.866 | 0.841
LCLC-97TM1 | 0.174 | 0.218 | 0.157 | 0.224 | 0.305 | 0.528 | 0.942 | 0.504 | 0.605 | 1.35 | 0.485 | 0.392 | 0.442 | 0.391 | 0.433 | 0.231 | 0.222 | 0.2 | 0.191 | 0.176
LCLC-103H | 0.595 | 0.671 | 0.616 | 0.586 | 0.593 | 1.14 | 1.09 | 0.976 | 0.91 | 0.979 | 0.751 | 0.782 | 0.773 | 0.775 | 0.749 | 0.707 | 0.623 | 0.642 | 0.675 | 0.619
LOU-NH91 | 0.532 | 0.512 | 0.481 | 0.511 | 0.512 | 0.493 | 0.472 | 0.447 | 0.533 | 0.472 | 0.931 | 0.867 | 0.817 | 0.906 | 0.89 | 0.76 | 0.807 | 0.759 | 0.818 | 0.788
LU99A | 0.322 | 0.33 | 0.366 | 0.301 | 0.305 | 1.13 | 1.21 | 1.15 | 1.09 | 0.911 | 0.263 | 0.331 | 0.254 | 0.264 | 0.247 | 0.504 | 0.499 | 0.571 | 0.482 | 0.411
LXF-289 | 0.778 | 0.793 | 0.794 | 0.706 | 0.731 | 1 | 0.888 | 0.993 | 0.927 | 0.939 | 1.11 | 1.03 | 1.03 | 0.993 | 1.03 | 0.669 | 0.628 | 0.643 | 0.573 | 0.655
NCI-H23 | 0.45 | 0.42 | 0.565 | 0.512 | 0.475 | 1.08 | 1.02 | 1.18 | 0.951 | 0.833 | – | 0.284 | 0.365 | 0.316 | 0.345 | – | 0.503 | 0.357 | 0.404 | 0.339
NCI-H322M | 0.499 | 0.742 | 0.388 | 0.496 | 0.701 | 1.25 | 1.14 | 1.19 | 1.16 | 1.26 | 0.68 | 0.753 | 0.679 | 0.645 | 0.661 | 0.49 | 0.497 | 0.477 | 0.487 | 0.468
NCI-H441 | 0.451 | 0.471 | 0.484 | 0.481 | 0.335 | 0.572 | 0.449 | 0.538 | 0.511 | 0.331 | 0.728 | 0.588 | 0.627 | 0.461 | 0.499 | 0.495 | 0.508 | 0.354 | 0.444 | 0.462
NCI-H460 | 0.366 | 0.295 | 0.311 | 0.313 | 0.321 | 1.22 | 1.05 | 1.1 | 0.974 | 1.06 | 0.46 | 0.447 | 0.433 | – | 0.428 | 0.142 | 0.133 | 0.195 | 0.0771 | 0.163
NCI-H520 | 0.271 | 0.294 | 0.316 | 0.215 | 0.221 | 0.593 | 0.455 | 0.651 | 0.658 | 0.552 | 0.378 | 0.352 | 0.284 | 0.298 | 0.286 | 0.493 | 0.703 | 0.664 | 0.594 | 0.497
NCI-H596 | 0.383 | 0.432 | 0.384 | 0.374 | 0.429 | 1.05 | 1.17 | 1.07 | 1.11 | 1.26 | 0.692 | 0.718 | 0.695 | 0.69 | 0.861 | 0.809 | 0.873 | 0.921 | 0.821 | 0.723
NCI-H647 | 0.476 | 0.475 | 0.409 | 0.364 | 0.413 | 1.02 | 1.01 | 1.01 | 0.846 | 0.776 | 0.386 | 0.579 | 0.523 | 0.575 | 0.305 | 0.463 | 0.492 | 0.434 | 0.388 | 0.299
NCI-H650 | 1 | 0.789 | 0.955 | 0.768 | 0.766 | 0.695 | 0.993 | 0.767 | 0.717 | 0.661 | 0.418 | 0.395 | 0.448 | 0.359 | 0.406 | 0.974 | 1.17 | 0.975 | 0.812 | 0.964
NCI-H661 | 0.4 | 0.465 | 0.387 | 0.498 | 0.657 | 0.897 | 0.707 | 0.918 | 0.873 | 0.607 | 0.739 | 0.697 | 0.74 | 0.649 | 0.706 | 0.565 | 0.551 | 0.54 | 0.591 | 0.592
NCI-H727 | 0.515 | 0.32 | 0.397 | 0.47 | 0.572 | 0.872 | 0.764 | 0.786 | 0.739 | 0.764 | – | 0.697 | 0.672 | 0.672 | 0.86 | – | 0.368 | 0.428 | 0.391 | 0.426
